Measured values published in patent US4496551A (priority 1983, dated 1985).

Columns and labels:
Format in all cases: in vivo
Phytophthora infestans = experiment: whole plant or invertebrate; conditions: Phytophthora infestans, in Solanum lycopersicum, 168 h, read-out: % Control of Tomato Late Blight
Pythium aphanadermatum [1] = experiment: Pythium control on coated cotton seeds; conditions: 168 h; for pest or weed control at 2000 mg/kg: 2 gm/kg seed, 1 week
Source text: Several compounds of the previous examples were incorporated into a proprietary formulation and used to coat cotton seeds at a rate of 2 gm/kg seed. After being thoroughly coated, the seeds were allowed to air dry at room temperature. The cotton seeds were then planted into soil amended with the fungus Pythium aphanadermatum, sand, and corn meal at a rate sufficient to kill most untreated seeds. The seeds were held at room temperature for 1 week, after which time disease ratings were made.

Rhizoctonia solani = experiment: rice sheath blight control on rice seedlings; conditions: Rhizoctonia solani, 168 h, 7 days
Method: Several compounds of the previous examples were again dissolved in acetone in an amount equal to 6% of the final volume and then suspended at a concentration of 100 ppm in purified water containing 250 ppm of the surfactant TREM 014 (polyhydric alcohol esters). This suspension was sprayed to the point of run-off on rice seedlings. The following day, the plants were inoculated with a mixture of bran and the mycelium of Rhizoctonia solani, causal agent of sheath blight of rice, and incubated in a growth room for 7 days. Disease ratings were then made. Treated plants from successful treatments had little sheath blight in contrast to untreated plants which were covered with sheath blight.

Venturia inaequalis = experiment: apple scab control on apple seedlings; conditions: Venturia inaequalis; 100 ppm
Method: Compounds of this invention were dissolved in acetone in an amount equal to 6% of the final volume and then suspended at a concentration of 100 ppm in purified water containing 250 ppm of the surfactant TREM 014 (polyhydric alcohol esters). This suspension was sprayed to the point of run-off on apple seedlings. The following day, the plants were inoculated with a spore suspension of the fungus Venturia inaequalis, causal agent of apple scab, and incubated in a saturated humidity chamber at 20° for 24 hours and then in a growth room for an additional 10-12 days. Treated plants from successful treatments had few or no apple scab lesions when compared to untreated plants which were covered with scab lesions.

Helminthosporium maydis = experiment: southern corn leaf blight control on corn seedlings; conditions: Bipolaris maydis, 168 h
Method: Compounds of the previous example were again dissolved in acetone in an amount equal to 6% of the final volume and then suspended at a concentration of 100 ppm in purified water containing 250 ppm of the surfactant TREM 014 (polyhydric alcohol esters). This suspension was sprayed to the point of run-off on corn seedlings. The following day, the plants were inoculated with a spore suspension of Helminthosporium maydis, causal agent of southern corn leaf blight, and incubated in a saturated humidity chamber at 20° for 24 hours and then in a growth room for an additional 7 days, when disease ratings were made. Treated plants from successful treatments had few lesions while the untreated plants had numerous lesions on each leaf.

Erysiphe cichoracearum = experiment: cucumber powdery mildew control on cucumber seedlings; conditions: Golovinomyces cichoracearum, 168 h, 7 days
Method: Compounds of the previous examples were again dissolved in acetone in an amount equal to 6% of the final volume and then suspended at a concentration of 100 ppm in purified water containing 250 ppm of the surfactant TREM 014 (polyhydric alcohol esters). This suspension was sprayed to the point of run-off on cucumber seedlings. The following day, the plants were inoculated with a spore suspension of the fungus Erysiphe cichoracearum, causal agent of cucumber powdery mildew, and incubated in a growth room for 7 days. Disease ratings were then made. Treated plants from successful treatments had little or no powdery mildew in contrast to untreated plants which were covered with powdery mildew.

[2] = tested on: Puccinia recondita var. tritici; experiment: wheat leaf rust control on wheat seedlings; conditions: 100 ppm, sprayed day before inoculation
Method: Compounds of this invention were dissolved in acetone in an amount equal to 6% of the final volume and then suspended at a concentration of 100 ppm in purified water containing 250 ppm of the surfactant TREM 014 (polyhydric alcohol esters). This suspension was sprayed to the point of run-off on wheat seedlings. The following day, the plants were inoculated with a spore suspension of Puccinia recondita var. tritici, causal agent of wheat leaf rust, and incubated in a saturated humidity chamber at 20° for 24 hours and then in a growth room for an additional 7 days, when disease ratings were made. Treated plants from successful treatments had few or no rust pustules while the untreated plants had numerous rust pustules on each leaf.

Pyricularia oryzae = experiment: whole plant or invertebrate; conditions: 168 h, read-out: % Control of Rice Blast
Cercospora arachidicola = experiment: peanut early leafspot control on peanut seedlings; conditions: Mycosphaerella arachidis, 336 h
Method: Compounds of the previous examples were again dissolved in acetone in an amount equal to 6% of the final volume and then suspended at a concentration of 100 ppm in purified water containing 250 ppm of the surfactant TREM 014 (polyhydric alcohol esters). This suspension was sprayed to the point of run-off on peanut seedlings. The following day, the plants were inoculated with a spore suspension of Cercospora arachidicola, causal agent of peanut early leafspot, and incubated in a saturated humidity chamber at 27° for 24 hours and then in a growth room for an additional 14 days, when disease ratings were made. Treated plants from successful treatments had few or no leafspots while the untreated plants had numerous leafspots on each leaf.

Pythium aphanadermatum [3] = experiment: Pythium control on coated corn seeds; conditions: 504 h, 2 gm/kg seed, 49° F. 2 weeks then 70° F. 1 week
Method: Several compounds of the previous examples were incorporated into a proprietary formulation and used to coat corn seeds at a rate of 2 gm/kg seed. After being thoroughly coated, the seeds were allowed to air dry at room temperature. The seeds were then planted into soil amended with a mixture of the fungus Pythium aphanadermatum, sand, and corn meal at a rate sufficient to kill most untreated seeds. The seeds were held at 49° F. for 2 weeks and then at 70° F. for 1 additional week. After this time disease ratings were made.

cucumber seedlings = experiment: phytotoxicity on cucumber seedlings; parameters: key: G: growth reduction; H: hormonal effects; conditions: 100 ppm

SMILES | pest or weed control at 100 ppm (Phytophthora infestans) [%] | pest or weed control at 2000 mg/kg (Pythium aphanadermatum [1]) [%] | pest or weed control at 100 ppm (Rhizoctonia solani) [%] | pest or weed control at 100 ppm (Venturia inaequalis) [%] | pest or weed control at 100 ppm (Helminthosporium maydis) [%] | pest or weed control at 100 ppm (Erysiphe cichoracearum) [%] | pest or weed control at 100 ppm [2] [%] | pest or weed control at 100 ppm (Pyricularia oryzae) [%] | pest or weed control at 100 ppm (Cercospora arachidicola) [%] | pest or weed control at 2000 mg/kg (Pythium aphanadermatum [3]) [%] | Phytotoxicity (growth reduction or hormonal effects) (cucumber seedlings) | pest or weed control at 500 mg/kg (Pythium aphanadermatum [1]; 0.5 gm/kg seed) [%]
CCCC[Si](C)(Cn1ccnc1)c1ccc(-c2ccccc2)cc1 (stereo not shown) [(1,1'-Biphenyl-4-yl)butyl(1H-imidazol-1-ylmethyl)methylsilane] | 0 | 0 | 90 | 100 | 0 | 100 | 100 | 90 | 90 | 0 | – | –
COc1ccccc1[Si](C)(C)Cn1ccnc1 [(1H-Imidazol-1-ylmethyl)(2-methoxyphenyl)dimethylsilane] | 0 | – | 90 | 60 | 0 | 100 | 0 | 0 | 0 | – | G | –
C[Si](C)(Cn1ccnc1)c1ccccc1C(F)(F)F [(1H-Imidazol-1-ylmethyl)dimethyl(2-trifluoromethylphenyl)silane] | 0 | – | 80 | 0 | 90 | 100 | 0 | 0 | 0 | – | G | –
C[Si](C)(Cn1ccnc1)c1ccccc1Cl [(2-Chlorophenyl)(1H-imidazol-1-ylmethyl)dimethylsilane] | 0 | 0 | 0 | 90 | 0 | 100 | 0 | 0 | 80 | – | – | –
C[Si](C)(Cn1ccnc1)c1cc(Cl)cc(Cl)c1 [(3,5-Dichlorophenyl)dimethyl(1H-imidazol-1-ylmethyl)silane] | 0 | – | 90 | 50 | 0 | 100 | 0 | 0 | 0 | – | G | –
C[Si](C)(Cn1ccnc1)c1ccc(Cl)cc1 [(4-Chlorophenyl)dimethyl(1H-imidazol-1-ylmethyl)silane] | 0 | – | 0 | 0 | 0 | 100 | 50 | 0 | 0 | 25 | – | 18
CCCC[Si](C)(Cn1ccnc1)c1ccc(F)cc1 (stereo not shown) [Butyl(4-fluorophenyl)(1H-imidazol-1-ylmethyl)methylsilane] | 0 | 0 | 80 | 80 | 0 | 100 | 0 | 100 | 0 | 0 | – | –
C[Si](C)(Cn1ccnc1)c1cccc(C(F)(F)F)c1 [Dimethyl(1H-imidazol-1-ylmethyl)(3-trifluoromethylphenyl)silane] | 70 | 0 | 0 | 0 | 0 | 80 | 0 | 0 | 50 | 0 | – | –
